Reference: article PMC2994747, “Molecular Characterization of c-Abl/c-Src Kinase Inhibitors Targeted against Murine Tumour Progenitor Cells that Express Stem Cell Markers” (PLoS ONE, 2010)
Read-outs that look alike come from different tables or passages of the source.

Legend:
[1] = system: A549; experiment: MTS cell viability assay; type: cell-based, human
Outline: (§1)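 Viability was measured as MTS absorbance at 490 nm following 1 h with the tetrazolium reagent. Treatment with the dual kinase inhibitors, or 0.2% DMSO as vehicle, lasted 24 h or 96 h in monolayer cultures kept in DMEM plus 10% foetal calf serum.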

[2] = system: HepG2; experiment: MTS cell viability assay; type: cell-based, human
Outline: as §1

[3] = system: CaCo2; experiment: MTS cell viability assay; type: cell-based, human
Outline: as §1

[4] = system: BetaD5; experiment: Cell cycle analysis by flow cytometry; type: cell-based, mouse; conditions: IC50 concentration, 96 h
Outline: (§2)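 Step one: detach cells with trypsin and rinse with PBS. Step two: pellet, then treat with solution A for 10 min at room temperature. Step three: add solutions B and C, with the final incubation cold (4°C) and dark, before cytometric acquisition.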

[5] = system: GammaA3; experiment: Cell cycle analysis by flow cytometry; type: cell-based, mouse; conditions: IC50 concentration, 96 h
Outline: as §2

[6] = system: GammaD12; experiment: Cell cycle analysis by flow cytometry; type: cell-based, mouse; conditions: IC50 concentration, 96 h
Outline: as §2

[7] = system: BetaD5; experiment: MTS cell viability assay; type: cell-based, mouse
Outline: as §1

[8] = system: GammaA3; experiment: MTS cell viability assay; type: cell-based, mouse
Outline: as §1

[9] = system: GammaD12; experiment: MTS cell viability assay; type: cell-based, mouse
Outline: as §1

[10] = system: A2C12; experiment: MTS cell viability assay; type: cell-based, mouse
Outline: as §1

[11] = system: BetaD5; experiment: Western blot, semi-quantitative protein expression; type: cell-based, mouse
Method: (§3) For the Western Blot analysis, cells were rinsed and lysed as previously described. An amount of 25 µg protein was used for SDS-PAGE. Antibodies for c-Abl (sc-131), Actin (sc-1616), Cdc2-p34 (sc-8395), EPS15 (sc-1840), FAK (sc-558), c-Fos (sc-52), p38 (sc-7972), p53 (sc-6243) and STAT5 (sc-835x) were obtained from Santa Cruz (Santa Cruz Biotechnology, Heidelberg, Germany), while c-Src (2109) and phospho-Src Y416 (2101) were purchased from Cell Signaling (Cell Signaling Technology, Frankfurt a. M., Germany). The EGFR (06-847), phospho-EGFR Y992 (07-821) and phospho-EGFR Y1045 (04-284) stem from Upstate (Upstate, Schwalbach, Germany) and the hnRNP-K (A300-676A) from Bethyl Labs (Bethyl Laboratories, Montgomery, Texas, USA). Finally p73 (IMG-246) was supplied by Imgenex (Imgenex, Hamburg, Germany). Depending on the primary antibody the secondary antibodies were either horseradish peroxidase-conjugated anti-mouse (AP 160P), anti-rabbit (AP 132P) or anti-sheep (AP 147P) (Chemicon, Schwalbach, Germany).
(§4) Semi-quantitative analysis were carried out with Kodak 1D Image Analysis Software in reference to the vehicle treated control cells (see supplementary table S7).

[12] = system: GammaA3; experiment: Western blot, semi-quantitative protein expression; type: cell-based, mouse
Method: as §3, §4

[13] = system: GammaD12; experiment: Western blot, semi-quantitative protein expression; type: cell-based, mouse
Method: as §3, §4

[14] = 24 h, read-out: Calculated IC50 after single treatment for 24 h
[15] = 96 h, read-out: Calculated IC50 after daily treatment for 96 h

Compound: Fc1ccccc1CNc1ncnc2c1cnn2CC(Cl)c1ccc(Br)cc1 (centres unmarked) [Si162]
- IC50 [1, 14]: 21.9 ± 2.7 µM
- IC50 [1, 15]: 5 µM
- IC50 [2, 14]: 34.7 ± 3.4 µM
- IC50 [2, 15]: 14.5 µM
- IC50 [3, 14]: > 100 µM
- IC50 [3, 15]: 1.9 ± 0.2 µM
- Cells in G1 phase [4]: 22.8%
- Cells in G2 phase [4]: 42.8%
- Cells in S phase [4]: 34.5%
- Cells in G1 phase [5]: 40.3%
- Cells in G2 phase [5]: 31.5%
- Cells in S phase [5]: 28.1%
- Cells in G1 phase [6]: 24.1%
- Cells in G2 phase [6]: 12.4%
- Cells in S phase [6]: 63.5%
- IC50 [7, 14]: 8.3 ± 1.2 µM
- IC50 [7, 15]: 6.4 ± 0.5 µM
- IC50 [8, 14]: 13.1 ± 1.1 µM
- IC50 [8, 15]: 6.4 ± 0.4 µM
- IC50 ([9]; 96 h, read-out: IC50 (MTS) after treatment for 96 h): 0.8 µM
- IC50 ([9]; MTS, 24 h, read-out: Calculated IC50 after single treatment for 24 h): 11.6 ± 1.3 µM
- IC50 [10, 14]: 17.6 ± 1.2 µM
- IC50 [10, 15]: 2.1 ± 0.2 µM
- Actin protein expression [11]: 91
- EGFR Y992-p protein expression [11]: 145
- EGFR Y1045-p protein expression [11]: 733
- EGFR protein expression [11]: 92
- EPS15 protein expression [11]: 554
- FAK protein expression [11]: 124
- STAT5 protein expression [11]: 182
- c-Abl protein expression [11]: 24
- c-Fos protein expression [11]: 122
- c-Src Y416-p protein expression [11]: 36
- c-Src protein expression [11]: 110
- hnRNP-K protein expression [11]: 20
- p38 protein expression [11]: 39
- p53 protein expression [11]: 443
- c-Src autophosphorylation (Tyr416), in words ([11]; IC50 concentration, 96 h): inhibition of c-Src autophosphorylation
- Actin protein expression [12]: 83
- EGFR Y992-p protein expression [12]: 77
- EGFR Y1045-p protein expression [12]: 69
- EGFR protein expression [12]: 1
- EPS15 protein expression [12]: 90
- FAK protein expression [12]: 111
- STAT5 protein expression [12]: 46
- c-Abl protein expression [12]: 1.79
- c-Src Y416-p protein expression [12]: 205
- c-Src protein expression [12]: 21
- hnRNP-K protein expression [12]: 5
- p38 protein expression [12]: 64
- p53 protein expression [12]: 323
- Actin protein expression [13]: 91
- EGFR Y992-p protein expression [13]: 237
- EGFR Y1045-p protein expression [13]: 309
- EGFR protein expression [13]: 65
- EPS15 protein expression [13]: 179
- FAK protein expression [13]: 108
- STAT5 protein expression [13]: 82
- c-Abl protein expression [13]: 195
- c-Fos protein expression [13]: 123
- c-Src Y416-p protein expression [13]: 105
- c-Src protein expression [13]: 56
- hnRNP-K protein expression [13]: 85
- p38 protein expression [13]: 43
- p53 protein expression [13]: 154
